Laboratory results: patent publication US20150105252A1, “SUBSTITUTED PYRAZOLES AS HERBICIDES” (E I DU PONT DE NEMOURS AND COMPANY, priority 2013, published 2015)

Experiments:
johnsongrass = assay: Test E preemergence; type: in vivo, Sorghum halepense; conditions: 21 days, scale 0 to 100
Source text: (§1) Seeds of plant species selected from bermudagrass (Cynodon dactylon), Surinam grass (Brachiaria decumbens), crabgrass, large (large crabgrass, Digitaria sanguinalis), crabgrass, naked (naked crabgrass, Digitaria nuda), foxtail, green (green foxtail, Setaria viridis), johnsongrass (Sorghum halepense), kochia (Kochia scoparia), morningglory (pitted morningglory, Ipomoea lacunosa), nutsedge, purple (purple nutsedge, Cyperus rotundus), ragweed (common ragweed, Ambrosia elation), mustard, black (black mustard, Brassica nigra), guineagrass (Panicum maximum), dallisgrass (Paspalum dilatatum), barnyardgrass (Echinochloa crus-galli), sandbur (southern sandbur, Cenchrus echinatus), sowthistle (common sowthistle, Sonchus oleraceous), ryegrass, Italian (Italian ryegrass, Lolium multiflorum), signalgrass (broadleaf signalgrass, Brachiaria platyphylla), dayflower, VA (Virginia (VA) dayflower, Commelina virginica), bluegrass (annual bluegrass, Poa annua), quackgrass (Elytrigia repens), mallow (common mallow, Malva sylvestris), buckwheat, wild (wild buckwheat, Polygonum convolvulus), leafy spurge (Euphorbia esula), common chickweed (Stellaria media), wild poinsettia (Euphorbia heterophylla), pigweed, palmer (palmer pigweed, Amaranthus palmeri), and pigweed (redroot pigweed, Amaranthus retroflexus) were planted into a blend of loam soil and sand and treated preemergence with test chemicals formulated in a non-phytotoxic solvent mixture which included a surfactant.
(§2) Treated plants and controls were maintained in a greenhouse for 21 days, after which time all species were compared to controls and visually evaluated. Plant response ratings, summarized in Table E, are based on a scale of 0 to 100 where 0 is no effect and 100 is complete control. A dash (-) response means no test result.

guineagrass = assay: Test E preemergence; type: in vivo, Panicum maximum; conditions: 21 days, scale 0 to 100
Source text: as §1, §2

dayflower, VA = assay: Test E preemergence; type: in vivo, Commelina virginica; conditions: 21 days, scale 0 to 100
Source text: as §1, §2

mallow = assay: Test E preemergence; type: in vivo, Malva sylvestris; conditions: 21 days, scale 0 to 100
Source text: as §1, §2

common chickweed = assay: Test E preemergence; type: in vivo, Stellaria media; conditions: 21 days, scale 0 to 100
Source text: as §1, §2

barnyardgrass = assay: Test F postemergence; type: in vivo, Echinochloa crus-galli; conditions: scale 0 to 100
Source text: (§3) Seeds of plant species selected from corn (Zea mays), soybean (Glycine max), velvetleaf (Abutilon theophrasti), lambsquarters (Chenopodium album), wild poinsettia (Euphorbia heterophylla), pigweed, palmer (palmer pigweed, Amaranthus palmeri), common waterhemp (Amaranthus rudis), surinam grass (Brachiaria decumbens), large crabgrass (Digitaria sanguinalis), crabgrass, Brazil (Brazilian crabgrass, Digitaria horizontalis), fall panicum (Panicum dichotomiflorum), giant foxtail (Setaria faberii), green foxtail (Setaria viridis), goosegrass (Eleusine indica), johnsongrass (Sorghum halepense), common ragweed (Ambrosia elation), barnyardgrass (Echinochloa crus-galli), southern sandbur (Cenchrus echinatus), arrowleaf sida (Sida rhombifolia), Italian ryegrass (Lolium multiflorum), dayflower, VA (Virginia (VA) dayflower, Commelina virginica), field bindweed (Convolvulus arvensis), cocklebur (common cocklebur, Xanthium strumarium), morningglory (Ipomoea coccinea), nightshade (eastern black nightshade, Solanum ptycanthum), kochia (Kochia scoparia), yellow nutsedge (Cyperus esculentus), and hairy beggarticks (Bidens pilosa), were planted into a silt loam soil and treated preemergence with test chemicals formulated in a non-phytotoxic solvent mixture which included a surfactant.
(§4) At the same time, plants from these crop and weed species and also horseweed (Canada horseweed, Conyza canadensis), smartweed (ladysthumb smartweed, Polygonum persicaria), waterhemp_RES1, (ALS & Triazine resistant common waterhemp, Amaranthus rudis), and waterhemp_RES2, (ALS & HPPD resistant common waterhemp, Amaranthus rudis) were treated with postemergence applications of test chemicals formulated in the same manner. Plants ranged in height from 2 to 18 cm for postemergence treatments (1- to 4-leaf stage). Treated plants and controls were maintained in a greenhouse for 14 to 21 days, after which time all species were compared to controls and visually evaluated. Plant response ratings, summarized in Table F, are based on a scale of 0 to 100 where 0 is no effect and 100 is complete control. A dash (-) response means no test result.

arrowleaf sida = assay: Test F postemergence; type: in vivo, Sida rhombifolia; conditions: scale 0 to 100
Source text: as §3, §4

Italian ryegrass = assay: Test F postemergence; type: in vivo, Lolium multiflorum; conditions: scale 0 to 100
Source text: as §3, §4

hairy beggarticks = assay: Test F postemergence; type: in vivo, Bidens pilosa; conditions: scale 0 to 100
Source text: as §3, §4

common waterhemp = assay: Test F postemergence; type: in vivo, Amaranthus rudis; conditions: scale 0 to 100
Source text: as §3, §4

[1] = system: waterhemp_RES1 (ALS & Triazine resistant common waterhemp); assay: Test F postemergence; type: in vivo, Amaranthus rudis; conditions: scale 0 to 100
Source text: as §3, §4

[2] = system: waterhemp_RES2 (ALS & HPPD resistant common waterhemp); assay: Test F postemergence; type: in vivo, Amaranthus rudis; conditions: scale 0 to 100
Source text: as §3, §4

Structure (SMILES): CCc1cc(C(=O)NC(C)C)nn1Cc1ccnc(C(F)(F)F)c1 [Compound 103]
- Plant response rating, Johnsongrass (johnsongrass; 16 g ai/ha): 70
- Plant response rating, Johnsongrass (johnsongrass; 31 g ai/ha): 100
- Plant response rating, Johnsongrass (johnsongrass; 62 g ai/ha): 100
- Plant response rating, Johnsongrass (johnsongrass; 125 g ai/ha): 100
- Plant response rating, Johnsongrass (johnsongrass; 250 g ai/ha): 100
- Plant response rating, Guineagrass (guineagrass; 16 g ai/ha): 100
- Plant response rating, Guineagrass (guineagrass; 31 g ai/ha): 100
- Plant response rating, Guineagrass (guineagrass; 62 g ai/ha): 100
- Plant response rating, Guineagrass (guineagrass; 125 g ai/ha): 100
- Plant response rating, Guineagrass (guineagrass; 250 g ai/ha): 100
- Plant response rating, Dayflower, VA (dayflower, VA; 16 g ai/ha): 80
- Plant response rating, Dayflower, VA (dayflower, VA; 31 g ai/ha): 98
- Plant response rating, Dayflower, VA (dayflower, VA; 62 g ai/ha): 100
- Plant response rating, Dayflower, VA (dayflower, VA; 125 g ai/ha): 100
- Plant response rating, Dayflower, VA (dayflower, VA; 250 g ai/ha): 100
- Plant response rating, Mallow (mallow; 16 g ai/ha): 95
- Plant response rating, Mallow (mallow; 31 g ai/ha): 98
- Plant response rating, Mallow (mallow; 62 g ai/ha): 98
- Plant response rating, Mallow (mallow; 125 g ai/ha): 100
- Plant response rating, Mallow (mallow; 250 g ai/ha): 100
- Plant response rating, Common Chickweed (common chickweed; 16 g ai/ha): 98
- Plant response rating, Common Chickweed (common chickweed; 31 g ai/ha): 100
- Plant response rating, Common Chickweed (common chickweed; 62 g ai/ha): 100
- Plant response rating, Common Chickweed (common chickweed; 125 g ai/ha): 100
- Plant response rating, Common Chickweed (common chickweed; 250 g ai/ha): 100

Structure (SMILES): CCOc1cc(C(=O)NCC(F)(F)F)nn1Cc1ccnc(C(F)(F)F)c1 [Compound 104]
- Plant response rating, Johnsongrass (johnsongrass; 16 g ai/ha): 95
- Plant response rating, Johnsongrass (johnsongrass; 31 g ai/ha): 100
- Plant response rating, Johnsongrass (johnsongrass; 62 g ai/ha): 100
- Plant response rating, Johnsongrass (johnsongrass; 125 g ai/ha): 100
- Plant response rating, Johnsongrass (johnsongrass; 250 g ai/ha): 100
- Plant response rating, Guineagrass (guineagrass; 16 g ai/ha): 100
- Plant response rating, Guineagrass (guineagrass; 31 g ai/ha): 100
- Plant response rating, Guineagrass (guineagrass; 62 g ai/ha): 100
- Plant response rating, Guineagrass (guineagrass; 125 g ai/ha): 100
- Plant response rating, Guineagrass (guineagrass; 250 g ai/ha): 100
- Plant response rating, Dayflower, VA (dayflower, VA; 16 g ai/ha): 98
- Plant response rating, Dayflower, VA (dayflower, VA; 31 g ai/ha): 98
- Plant response rating, Dayflower, VA (dayflower, VA; 62 g ai/ha): 100
- Plant response rating, Dayflower, VA (dayflower, VA; 125 g ai/ha): 100
- Plant response rating, Dayflower, VA (dayflower, VA; 250 g ai/ha): 100
- Plant response rating, Mallow (mallow; 16 g ai/ha): 40
- Plant response rating, Mallow (mallow; 31 g ai/ha): 98
- Plant response rating, Mallow (mallow; 62 g ai/ha): 100
- Plant response rating, Mallow (mallow; 125 g ai/ha): 98
- Plant response rating, Mallow (mallow; 250 g ai/ha): 100
- Plant response rating, Common Chickweed (common chickweed; 16 g ai/ha): 100
- Plant response rating, Common Chickweed (common chickweed; 31 g ai/ha): 100
- Plant response rating, Common Chickweed (common chickweed; 62 g ai/ha): 100
- Plant response rating, Common Chickweed (common chickweed; 125 g ai/ha): 100
- Plant response rating, Common Chickweed (common chickweed; 250 g ai/ha): 100
- Plant response rating, Barnyardgrass (barnyardgrass; Postemergence, 31 g ai/ha): 0
- Plant response rating, Barnyardgrass (barnyardgrass; Postemergence, 125 g ai/ha): 30
- Plant response rating, Barnyardgrass (barnyardgrass; Postemergence, 250 g ai/ha): 80
- Plant response rating, Barnyardgrass (barnyardgrass; postemergence, 62 g ai/ha): 10
- Plant response rating, Barnyardgrass (barnyardgrass; postemergence, 500 g ai/ha): 95
- Plant response rating, Arrowleaf Sida (arrowleaf sida; Postemergence, 31 g ai/ha): 55
- Plant response rating, Arrowleaf Sida (arrowleaf sida; Postemergence, 125 g ai/ha): 70
- Plant response rating, Arrowleaf Sida (arrowleaf sida; Postemergence, 250 g ai/ha): 80
- Plant response rating, Arrowleaf Sida (arrowleaf sida; postemergence, 62 g ai/ha): 60
- Plant response rating, Arrowleaf Sida (arrowleaf sida; postemergence, 500 g ai/ha): 95
- Plant response rating, Italian Ryegrass (Italian ryegrass; Postemergence, 31 g ai/ha): 0
- Plant response rating, Italian Ryegrass (Italian ryegrass; Postemergence, 125 g ai/ha): 35
- Plant response rating, Italian Ryegrass (Italian ryegrass; Postemergence, 250 g ai/ha): 60
- Plant response rating, Italian Ryegrass (Italian ryegrass; postemergence, 62 g ai/ha): 15
- Plant response rating, Italian Ryegrass (Italian ryegrass; postemergence, 500 g ai/ha): 85
- Plant response rating, Hairy Beggarticks (hairy beggarticks; Postemergence, 31 g ai/ha): 50
- Plant response rating, Hairy Beggarticks (hairy beggarticks; Postemergence, 125 g ai/ha): 60
- Plant response rating, Hairy Beggarticks (hairy beggarticks; Postemergence, 250 g ai/ha): 85
- Plant response rating, Hairy Beggarticks (hairy beggarticks; postemergence, 62 g ai/ha): 50
- Plant response rating, Hairy Beggarticks (hairy beggarticks; postemergence, 500 g ai/ha): 90
- Plant response rating, Common Waterhemp (common waterhemp; Postemergence, 31 g ai/ha): 75
- Plant response rating, Common Waterhemp (common waterhemp; Postemergence, 125 g ai/ha): 85
- Plant response rating, Common Waterhemp (common waterhemp; Postemergence, 250 g ai/ha): 85
- Plant response rating, Common Waterhemp (common waterhemp; postemergence, 62 g ai/ha): 80
- Plant response rating, Common Waterhemp (common waterhemp; postemergence, 500 g ai/ha): 90
- Plant response rating, Waterhemp_RES1 ([1]; Postemergence, 31 g ai/ha): 70
- Plant response rating, Waterhemp_RES1 ([1]; Postemergence, 125 g ai/ha): 90
- Plant response rating, Waterhemp_RES1 ([1]; Postemergence, 250 g ai/ha): 75
- Plant response rating, Waterhemp_RES1 ([1]; postemergence, 62 g ai/ha): 75
- Plant response rating, Waterhemp_RES1 ([1]; postemergence, 500 g ai/ha): 85
- Plant response rating, Waterhemp_RES2 ([2]; Postemergence, 31 g ai/ha): 80
- Plant response rating, Waterhemp_RES2 ([2]; Postemergence, 125 g ai/ha): 95
- Plant response rating, Waterhemp_RES2 ([2]; Postemergence, 250 g ai/ha): 80
- Plant response rating, Waterhemp_RES2 ([2]; postemergence, 62 g ai/ha): 80
- Plant response rating, Waterhemp_RES2 ([2]; postemergence, 500 g ai/ha): 85
